Measurements published in patent publication US20060100245A1, “Substituted biphenyl-4-carboxylic acid arylamide analogues” (Neurogen Corporation, priority 2002, published 2006).

Target: T1, human capsaicin receptor (VR1) (Homo sapiens, UniProt Q8NER1)
T1 construct: transfected with the pBK-CMV expression construct encoding the full length human capsaicin receptor; expressed in transfected cells
Test: Capsaicin receptor binding assay ([3H]RTX competition)
Settings: read-out: Ki
How it was run: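 Membranes from HEK293 cells stably expressing full-length human VR1; competition against 60 pM [3H]RTX, 60 min at 37 °C in HEPES/sucrose buffer pH 7.4 with 0.25 mg/ml BSA. Non-specific binding defined with 1 μM unlabelled RTX; alpha1-acid glycoprotein added after termination on ice.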

T1 sequence (Q8NER1 whole entry): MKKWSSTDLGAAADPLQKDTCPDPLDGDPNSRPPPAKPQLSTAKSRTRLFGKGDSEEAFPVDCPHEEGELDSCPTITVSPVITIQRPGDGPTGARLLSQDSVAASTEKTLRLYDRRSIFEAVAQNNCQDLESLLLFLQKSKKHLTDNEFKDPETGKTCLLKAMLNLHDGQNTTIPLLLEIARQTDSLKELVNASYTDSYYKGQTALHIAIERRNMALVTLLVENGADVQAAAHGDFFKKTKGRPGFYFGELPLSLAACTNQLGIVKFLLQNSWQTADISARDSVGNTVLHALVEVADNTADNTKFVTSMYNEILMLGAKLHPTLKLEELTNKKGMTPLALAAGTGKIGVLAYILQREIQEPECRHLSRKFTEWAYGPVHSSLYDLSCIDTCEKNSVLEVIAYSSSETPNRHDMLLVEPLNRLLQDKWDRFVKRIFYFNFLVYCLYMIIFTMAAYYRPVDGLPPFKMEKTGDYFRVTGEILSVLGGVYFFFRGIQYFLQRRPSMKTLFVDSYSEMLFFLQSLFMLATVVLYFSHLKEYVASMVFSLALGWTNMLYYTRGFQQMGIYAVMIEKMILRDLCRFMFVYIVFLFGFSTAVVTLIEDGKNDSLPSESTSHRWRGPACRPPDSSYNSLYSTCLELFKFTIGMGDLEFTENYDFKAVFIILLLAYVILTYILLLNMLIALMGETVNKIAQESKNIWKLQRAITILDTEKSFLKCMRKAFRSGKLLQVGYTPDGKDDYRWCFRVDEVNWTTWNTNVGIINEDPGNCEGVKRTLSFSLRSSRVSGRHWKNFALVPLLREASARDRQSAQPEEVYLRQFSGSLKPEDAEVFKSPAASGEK

Compound	Ki [nM]
COc1cccc(-c2ccc(C(=O)Nc3ccc(C)c(F)c3)cn2)c1 [Compound 268, N-(3-Fluoro-4-methyl-phenyl)-6-(3-methoxy-phenyl)-nicotinamide]	< 1000
COc1cccc(NC(=O)c2ccc(-c3cccc(OC(F)(F)F)c3)nc2)c1 [Compound 278]	< 1000
COc1cccc(NC(=O)c2ccc(-c3cccc(C)c3)nc2)c1 [Compound 280, N-(3-Methoxy-phenyl)-6-m-tolyl-nicotinamide]	< 1000
COc1cccc(NC(=O)c2ccc(-c3ccccc3)nc2)c1 [Compound 282, N-(3-Methoxy-phenyl)-6-phenyl-nicotinamide]	< 1000
CC(C)(C)c1cccc(NC(=O)c2ccc(-c3ccccc3F)nc2)c1 [Compound 288, N-(3-tert-Butyl-phenyl)-6-(2-fluoro-phenyl)-nicotinamide]	< 1000
CC(C)(C)c1cccc(NC(=O)c2ccc(-c3cccc(F)c3)nc2)c1 [Compound 296, N-(3-tert-Butyl-phenyl)-6-(3-fluoro-phenyl)-nicotinamide]	< 1000
Cc1cc(C)cc(-c2ccc(C(=O)Nc3ccc(Br)c(Cl)c3)cn2)c1 [Compound 316, N-(4-Bromo-3-chloro-phenyl)-6-(3,5-dimethyl-phenyl)-nicotinamide]	< 1000
CCOc1cccc(-c2ccc(C(=O)Nc3ccc(Br)c(Cl)c3)cn2)c1 [Compound 317, N-(4-Bromo-3-chloro-phenyl)-6-(3-ethoxy-phenyl)-nicotinamide]	< 1000
O=C(Nc1ccc(Br)c(Cl)c1)c1ccc(-c2cccc(F)c2)nc1 [Compound 318, N-(4-Bromo-3-chloro-phenyl)-6-(3-fluoro-phenyl)-nicotinamide]	< 1000
O=C(Nc1ccc(Br)c(Cl)c1)c1ccc(-c2ccc(F)cc2)nc1 [Compound 320, N-(4-Bromo-3-chloro-phenyl)-6-(4-fluoro-phenyl)-nicotinamide]	< 1000
CC(C)c1ccc(-c2ccc(C(=O)Nc3ccc(Br)c(Cl)c3)cn2)cc1 [Compound 321, N-(4-Bromo-3-chloro-phenyl)-6-(4-isopropyl-phenyl)-nicotinamide]	< 1000
CCCCc1ccc(NC(=O)c2ccc(-c3ncccc3Cl)cc2)cc1 [Compound 332, N-(4-Butyl-phenyl)-4-(3-chloro-pyridin-2-yl)-benzamide]	< 1000
CCCCc1ccc(NC(=O)c2ccc(-c3ccccc3C)nc2)cc1 [Compound 343, N-(4-Butyl-phenyl)-6-o-tolyl-nicotinamide]	< 1000
O=C(Nc1ccc(Cl)cc1)c1ccc(-c2ccccc2F)nc1 [Compound 348, N-(4-Chloro-phenyl)-6-(2-fluoro-phenyl)-nicotinamide]	< 1000
O=C(Nc1ccc(C2CCCC2)cc1)c1ccc(-c2ncccc2F)cc1 [Compound 363, N-(4-Cyclopenyl-phenyl)-4-(3-fluoro-pyridin-2-yl)-benzamide]	< 1000
CCc1ccc(NC(=O)c2ccc(-c3ccccc3F)nc2)cc1 [Compound 365, N-(4-Ethyl-phenyl)-6-(2-fluoro-phenyl)-nicotinamide]	< 1000
CCc1ccc(NC(=O)c2ccc(-c3ccccc3C)nc2)cc1 [Compound 374, N-(4-Ethyl-phenyl)-6-o-tolyl-nicotinamide]	< 1000
O=C(Nc1ccc(F)cc1)c1ccc(-c2ncccc2F)cc1 [Compound 375, N-(4-Fluoro-phenyl)-4-(3-fluoro-pyridin-2-yl)-benzamide]	< 1000
COc1ccccc1-c1ccc(C(=O)Nc2ccc(C(C)C)cc2)cn1 [Compound 378, N-(4-Isopropyl-phenyl)-6-(2-methoxy-phenyl)-nicotinamide]	< 1000
Cc1cccc(-c2ccc(C(=O)Nc3ccc(C(C)C)cc3)cn2)c1 [Compound 383, N-(4-Isopropyl-phenyl)-6-m-tolyl-nicotinamide]	< 1000
Cc1ccccc1-c1ccc(C(=O)Nc2ccc(C(C)C)cc2)cn1 [Compound 384, N-(4-Isopropyl-phenyl)-6-o-tolyl-nicotinamide]	< 1000
CC(C)c1ccc(NC(=O)c2ccc(-c3ccccc3)nc2)cc1 [Compound 385, N-(4-Isopropyl-phenyl)-6-phenyl-nicotinamide]	< 1000
CCCc1ccc(NC(=O)c2ccc(-c3ccccc3C)nc2)cc1 [Compound 389, N-(4-Propyl-phenyl)-6-o-tolyl-nicotinamide]	< 1000
CCC(C)c1ccc(NC(=O)c2ccc(-c3ncccc3F)cc2)cc1 (stereo not drawn) [Compound 390, N-(4-sec-Butyl-phenyl)-4-(3-fluoro-pyridin-2-yl)-benzamide]	< 1000

Compound	Ki [nM]
COc1ccc(F)cc1-c1ccc(C(=O)Nc2ccc(C(C)(C)C)cc2Cl)cn1 [Compound 391, N-(4-tert-Butyl-2-chloro-phenyl)-6-(5-fluoro-2-methoxy-phenyl)-nicotinamide]	< 1000
CC(C)(C)[C@H]1CC[C@H](NC(=O)c2ccc(-c3ncccc3Cl)cc2)CC1 [Compound 392, N-(4-tert-Butyl-cyclohexyl)-4-(3-chloro-pyridin-2-yl)-benzamide (trans)]	< 1000
CC(C)(C)[C@H]1CC[C@@H](NC(=O)c2ccc(-c3ncccc3Cl)cc2)CC1 [Compound 393, N-(4-tert-Butyl-cyclohexyl)-4-(3-chloro-pyridin-2-yl)-benzamide (cis)]	< 1000
CC(C)(C)c1ccc(NC(=O)c2ccc(-c3ncccc3C(F)(F)F)cc2O)cc1 [Compound 394, N-(4-tert-Butyl-phenyl)-2-hydroxy-4-(3-trifluoromethyl-pyridin-2-yl)-benzamide]	< 1000
CC(C)(C)c1ccc(NC(=O)c2ccc(-c3ncccc3C(F)(F)F)cc2[N+](=O)[O-])cc1 [Compound 395, N-(4-tert-Butyl-phenyl)-2-nitro-4-(3-trifluoromethyl-pyridin-2-yl)-benzamide]	< 1000
CC(C)(C)c1ccc(NC(=O)c2ccc(-c3ccc4[nH]ccc4c3)cc2)cc1 [Compound 396, N-(4-tert-Butyl-phenyl)-4-(1H-indol-5-yl)-benzamide]	< 1000
CC(C)(C)c1ccc(NC(=O)c2ccc(C3CCCCN3S(C)(=O)=O)cc2)cc1 (stereo not drawn) [Compound 397, N-(4-tert-Butyl-phenyl)-4-(1-methanesulfonyl-piperidin-2-yl)-benzamide]	< 1000
CN1CCCCC1c1ccc(C(=O)Nc2ccc(C(C)(C)C)cc2)cc1 (stereo not drawn) [Compound 398, N-(4-tert-Butyl-phenyl)-4-(1-methyl-piperidin-2-yl)-benzamide]	< 1000
CCCN1CCCCC1c1ccc(C(=O)Nc2ccc(C(C)(C)C)cc2)cc1 (stereo not drawn) [Compound 399, N-(4-tert-Butyl-phenyl)-4-(1-propyl-piperidin-2-yl)-benzamide]	< 1000
CC(C)(C)c1ccc(NC(=O)c2ccc(-c3ncc(Cl)cc3Cl)cc2)cc1 [Compound 400, N-(4-tert-Butyl-phenyl)-4-(3,5-dichloro-pyridin-2-yl)-benzamide]	< 1000
CC(C)(C)c1ccc(NC(=O)c2ccc(-c3ncccc3-c3nnco3)cc2)cc1 [Compound 401, N-(4-tert-Butyl-phenyl)-4-(3-[1,3,4]oxadiazol-2-yl-pyridin-2-yl)-benzamide]	< 1000
CC(C)(C)c1ccc(NC(=O)c2ccc(-c3ncc(C(F)(F)F)cc3Cl)cc2)cc1 [Compound 402, N-(4-tert-Butyl-phenyl)-4-(3-chloro-5-trifluoromethyl-pyridin-2-yl)-benzamide]	< 1000
CC(C)(C)c1ccc(NC(=O)c2ccc(-c3nccnc3Cl)cc2)cc1 [Compound 403, N-(4-tert-Butyl-phenyl)-4-(3-chloro-pyrazin-2-yl)-benzamide]	< 1000
CC(C)(C)c1ccc(NC(=O)c2ccc(-c3ncccc3Cl)cc2)cc1 [Compound 404, N-(4-tert-Butyl-phenyl)-4-(3-chloro-pyridin-2-yl)-benzamide]	< 1000
CC(C)(C)c1ccc(NC(=O)c2ccc(-c3ncccc3C#N)cc2)cc1 [Compound 405, N-(4-tert-Butyl-phenyl)-4-(3-cyano-pyridin-2-yl)-benzamide]	< 1000
CC(C)(C)c1ccc(NC(=O)c2ccc(-c3ncccc3NC3CCCC3)cc2)cc1 [Compound 406, N-(4-tert-Butyl-phenyl)-4-(3-cyclopentylamino-pyridin-2-yl)-benzamide]	< 1000
CN(C)Cc1cccnc1-c1ccc(C(=O)Nc2ccc(C(C)(C)C)cc2)cc1 [Compound 407, N-(4-tert-Butyl-phenyl)-4-(3-dimethylaminomethyl-pyridin-2-yl)-benzamide]	< 1000
CCS(=O)(=O)Nc1cccnc1-c1ccc(C(=O)Nc2ccc(C(C)(C)C)cc2)cc1 [Compound 408, N-(4-tert-Butyl-phenyl)-4-(3-ethanesulfonylamino-pyridin-2-yl)-benzamide]	< 1000
CC(C)(C)c1ccc(NC(=O)c2ccc(-c3ncccc3F)cc2)cc1 [Compound 409, N-(4-tert-Butyl-phenyl)-4-(3-fluoro-pyridin-2-yl)-benzamide]	< 1000
CC(C)(C)c1ccc(NC(=O)c2ccc(-c3ncccc3C=O)cc2)cc1 [Compound 410, N-(4-tert-Butyl-phenyl)-4-(3-formyl-pyridin-2-yl)-benzamide]	< 1000
CC(C)(C)c1ccc(NC(=O)c2ccc(-c3ncccc3NO)cc2)cc1 [Compound 411, N-(4-tert-Butyl-phenyl)-4-(3-hydroxyamino-pyridin-2-yl)-benzamide]	< 1000
CC(C)(C)c1ccc(NC(=O)c2ccc(-c3ncccc3CO)cc2)cc1 [Compound 412, N-(4-tert-Butyl-phenyl)-4-(3-hydroxymethyl-pyridin-2-yl)-benzamide]	< 1000
CC(C)(C)c1ccc(NC(=O)c2ccc(-c3ncccc3NS(C)(=O)=O)cc2)cc1 [Compound 413, N-(4-tert-Butyl-phenyl)-4-(3-methanesulfonylamino-pyridin-2-yl)-benzamide]	< 1000
CC(C)(C)c1ccc(NC(=O)c2ccc(-c3ncccc3[N+](=O)[O-])cc2)cc1 [Compound 415, N-(4-tert-Butyl-phenyl)-4-(3-nitro-pyridin-2-yl)-benzamide]	< 1000
